The values that follow come from patent publication US20260356823A1, “SODIUM CHANNEL REGULATOR AND USE THEREOF” (SHANGHAI HUILUN PHARMACEUTICAL CO., LTD., priority 2022, published 2026).

Some results are limits rather than exact numbers.

The target in the assay is T1, human Nav1.8 (Homo sapiens, UniProt Q9Y5Y9).
T1 construct: expressed in transfected cells
T1 sequence (Q9Y5Y9 whole entry): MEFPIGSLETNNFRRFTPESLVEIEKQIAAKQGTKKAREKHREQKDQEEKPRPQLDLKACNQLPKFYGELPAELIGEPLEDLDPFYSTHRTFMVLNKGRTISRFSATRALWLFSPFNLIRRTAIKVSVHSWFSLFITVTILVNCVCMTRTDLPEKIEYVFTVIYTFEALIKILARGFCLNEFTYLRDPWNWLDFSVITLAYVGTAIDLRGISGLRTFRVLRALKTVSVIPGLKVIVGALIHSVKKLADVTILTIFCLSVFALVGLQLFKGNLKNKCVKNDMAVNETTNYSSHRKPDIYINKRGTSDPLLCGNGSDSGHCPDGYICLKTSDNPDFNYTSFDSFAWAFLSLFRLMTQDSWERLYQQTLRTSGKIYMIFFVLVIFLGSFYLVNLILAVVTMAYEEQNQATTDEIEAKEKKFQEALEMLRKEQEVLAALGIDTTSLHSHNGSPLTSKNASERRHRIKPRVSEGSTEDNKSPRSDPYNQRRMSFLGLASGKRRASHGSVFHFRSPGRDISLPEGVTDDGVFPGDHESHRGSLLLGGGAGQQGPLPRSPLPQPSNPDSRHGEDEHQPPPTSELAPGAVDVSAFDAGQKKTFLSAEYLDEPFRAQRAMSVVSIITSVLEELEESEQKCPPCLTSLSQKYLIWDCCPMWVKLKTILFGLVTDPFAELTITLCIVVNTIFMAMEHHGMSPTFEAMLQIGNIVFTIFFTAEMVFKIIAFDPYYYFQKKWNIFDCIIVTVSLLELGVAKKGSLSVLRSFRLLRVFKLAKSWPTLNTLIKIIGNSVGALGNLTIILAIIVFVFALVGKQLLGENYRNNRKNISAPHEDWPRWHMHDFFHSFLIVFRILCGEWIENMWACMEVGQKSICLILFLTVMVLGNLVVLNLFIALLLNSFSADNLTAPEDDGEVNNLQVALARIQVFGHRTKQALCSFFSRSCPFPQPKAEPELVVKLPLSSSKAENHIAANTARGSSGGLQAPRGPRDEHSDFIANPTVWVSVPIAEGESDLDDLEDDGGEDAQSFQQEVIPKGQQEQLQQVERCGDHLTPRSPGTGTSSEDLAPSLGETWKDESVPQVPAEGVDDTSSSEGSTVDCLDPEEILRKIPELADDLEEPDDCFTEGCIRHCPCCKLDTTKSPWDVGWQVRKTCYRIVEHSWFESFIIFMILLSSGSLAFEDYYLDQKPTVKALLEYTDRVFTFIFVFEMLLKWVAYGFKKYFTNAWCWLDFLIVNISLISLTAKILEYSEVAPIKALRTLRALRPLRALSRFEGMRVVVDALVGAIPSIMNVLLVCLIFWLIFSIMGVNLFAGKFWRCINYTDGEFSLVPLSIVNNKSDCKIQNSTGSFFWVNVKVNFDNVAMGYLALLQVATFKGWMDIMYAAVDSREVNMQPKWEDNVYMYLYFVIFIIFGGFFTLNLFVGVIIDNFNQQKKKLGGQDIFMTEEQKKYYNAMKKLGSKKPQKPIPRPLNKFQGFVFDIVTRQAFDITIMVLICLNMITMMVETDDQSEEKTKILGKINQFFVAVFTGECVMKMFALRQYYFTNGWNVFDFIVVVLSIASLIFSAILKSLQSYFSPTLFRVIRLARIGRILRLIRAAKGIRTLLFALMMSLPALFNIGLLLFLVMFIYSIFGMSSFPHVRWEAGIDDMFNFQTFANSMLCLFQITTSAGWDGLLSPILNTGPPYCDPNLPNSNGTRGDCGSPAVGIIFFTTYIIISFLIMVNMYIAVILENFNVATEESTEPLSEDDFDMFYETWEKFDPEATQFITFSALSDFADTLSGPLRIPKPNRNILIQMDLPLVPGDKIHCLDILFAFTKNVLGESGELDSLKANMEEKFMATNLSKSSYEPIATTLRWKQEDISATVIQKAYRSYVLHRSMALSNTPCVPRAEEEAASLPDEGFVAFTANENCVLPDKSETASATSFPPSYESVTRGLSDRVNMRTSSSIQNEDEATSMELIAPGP
The experiment in a line: In vitro inhibition of Nav1.8, manual patch clamp on HEK293 cells stably expressing human Nav1.8. The note with it: HEK293, 100 nM, human Nav1.8, manual patch clamp, read-out: Inhibitory activity (inhibition/% at 100 nM concentration). It counts as cell-based. The procedure: Bioactivity Test 1: In Vitro Inhibition of Nav1.8 by the Compound
By using a manual patch clamp on HEK293 cells stably expressing human Nav1.8, currents on Nav1.8 before and after administration of the compound were compared after the currents on Nav1.8 were stable, to obtain the effect of the compound on the Nav1.8 channel.
The to-be-tested compound was dissolved in DMSO to prepare a 9 mM stock solution, which was taken and dissolved in extracellular fluid at a desired concentration on the day of testing. The extracellular fluid included the following ingredients (mM): NaCl, 137; KCl, 4; CaCl2, 1.8; MgCl2, 1; HEPES, 10; glucose, 10; and pH 7.4 (NaOH titration). All reagents were purchased from Sigma (St. Louis, MO).
The cells were clamped at −80 mV and depolarized with a sustained 10 ms square wave to 10 mV to obtain a current on Nav1.8. This process was repeated every 5 seconds. A maximum current caused by the square wave was detected. After the current is stable, the to-be-tested compound (dissolved in the extracellular fluid at the desired concentration) was perfused. After the current is stable, the strength of blocking Nav1.8 by the compound was calculated based on the currents before and after perfusion of the compound. pCLAMP 10 (Molecular Devices, Union City, CA) was used. That the current is stable means that the current changes over time within a limited range.
As for `COc1c([C@H]2[C@H](C(=O)Nc3cc(F)[nH]c(=O)c3)O[C@@](C)(C(F)(F)F)[C@H]2C)ccc(F)c1F` (relative stereo) [Example 24, rel-(2R,3S,4S,5R)-3-(3,4-difluoro-2-methoxyphenyl)-N-(6-fluoro-2-oxo-1H-pyridin-4-yl)-4,5-dimethyl-5-(trifluoromethyl)tetrahydrofuran-2-carboxamide], the inhibition at 0.1 µM was ≥ 50%. For `COc1c([C@H]2[C@H](C(=O)Nc3ccc(C#N)c(C(N)=O)c3)O[C@@](C)(C(F)(F)F)[C@H]2C)ccc(F)c1F` (relative stereo) [Example 25, rel-(2R,3S,4S,5R)—N-(3-carbamoyl-4-cyanophenyl)-3-(3,4-difluoro-2-methoxyphenyl)-4,5-dimethyl-5-(trifluoromethyl)tetrahydrofuran-2-carboxamide], the inhibition at 0.1 µM was ≥ 50%. In the case of `COc1c([C@H]2[C@H](C(=O)Nc3ccc(=O)[nH]n3)O[C@@](C)(C(F)(F)F)[C@H]2C)ccc(F)c1F` (relative stereo) [Example 27, rel-(2R,3S,4S,5R)-3-(3,4-difluoro-2-methoxyphenyl)-4,5-dimethyl-N-(6-oxo-1H-1,2-dioxine-3-yl)-5-(trifluoromethyl)tetrahydrofuran-2-carboxamide], the inhibition at 0.1 µM is ≥ 50%.

With `COc1c([C@H]2[C@H](C(=O)Nc3ccc(C(N)=O)c(C(N)=O)c3)O[C@@](C)(C(F)(F)F)[C@H]2C)ccc(F)c1F` (relative stereo) [Example 30, rel-(2R,3S,4S,5R)-4-({[3-(3,4-difluoro-2-methoxyphenyl)-4,5-dimethyl-5-(trifluoromethyl)tetrahydrofuran-2-yl]carbonyl}amino)benzene-1,2-dicarboxamide], the inhibition at 0.1 µM is ≥ 50%. Regarding `COc1c([C@H]2[C@H](C(=O)Nc3ccnc(C(=O)N4CCCO4)c3)O[C@@](C)(C(F)(F)F)[C@H]2C)ccc(F)c1F` (relative stereo) [Example 32, rel-(2R,3S,4S,5R)-3-(3,4-difluoro-2-methoxyphenyl)-4,5-dimethyl-N-[2-(tetrahydroisoxazol-2-ylcarbonyl)pyridin-4-yl]-5-(trifluoromethyl)tetrahydrofuran-2-carboxamide], the inhibition at 0.1 µM is ≥ 50%.

In the case of `COc1c([C@H]2C(C(=O)Nc3ccc4c(c3)S(=O)(=O)NC4=O)O[C@@](C)(C(F)(F)F)[C@H]2C)ccc(F)c1F` (relative stereo) [Example 79, rel-(2R,3S,4S,5)-3-(3,4-difluoro-2-methoxyphenyl)-4,5-dimethyl-5-(trifluoromethyl)-N-(1,1,3-trioxo-2,3-dihydro-1λ6-benzo[d][1,2]thiazol-6-yl)tetrahydrofuran-2-carboxamide], the inhibition at 0.1 µM is ≥ 50%. As to `CCNS(=O)(=O)c1cc(NC(=O)[C@@H]2O[C@@](C)(C(F)(F)F)[C@@H](C)[C@H]2c2ccc(F)c(F)c2OC)ccn1` (relative stereo) [Example 83, rel-(2R,3S,4S,5R)-3-(3,4-difluoro-2-methoxyphenyl)-N-(2-(N-ethylsulfamoyl)pyridin-4-yl)-4,5-dimethyl-5-(trifluoromethyl)tetrahydrofuran-2-carboxamide], the inhibition at 0.1 µM was ≥ 50%. `COc1c(C2[C@H](C(=O)Nc3ccnc(S(=O)(=O)NCC(F)(F)F)c3)O[C@@](C)(C(F)(F)F)[C@H]2C)ccc(F)c1F` (relative stereo) [Example 84, rel-(2R,3S,4S,5R)-3-(3,4-difluoro-2-methoxyphenyl)-4,5-dimethyl-N-(2-(N-(2,2,2-trifluoroethyl)sulfamoyl)pyridin-4-yl)-5-trifluoromethyl tetrahydrofuran-2-carboxamide]: the inhibition at 0.1 µM is ≥ 50%.

As for `CNS(=O)(=O)c1cc(NC(=O)[C@@H]2O[C@]3(C(F)(F)F)CC[C@]3(C)[C@H]2c2ccc(F)c(F)c2OC)ccn1` (relative stereo) [Example 88, rel-(1R,3R,4S,5R)-4-(3,4-difluoro-2-methoxyphenyl)-5-methyl-N-(2-(N-methylsulfamoyl)pyridin-4-yl)-1-(trifluoromethyl)-2-oxabicyclo[3.2.0]heptane-3-carboxamide], the inhibition at 0.1 µM is ≥ 50%. On to `COc1c([C@H]2[C@H](C(=O)Nc3ccnc(C(O)CF)c3)O[C@]3(C(F)(F)F)CC[C@]23C)ccc(F)c1F` (relative stereo) [Example 89, rel-(1R,3R,4S,5R)-4-(3,4-difluoro-2-methoxyphenyl)-N-(2-(2-fluoro-1-hydroxyethyl)pyridin-4-yl)-5-methyl-1-(trifluoromethyl)-2-oxabicyclo[3.2.0]heptane-3-carboxamide], for which the inhibition at 0.1 µM is ≥ 50%. Consider `COc1c([C@H]2[C@H](C(=O)Nc3ccc(F)c(S(=O)(=O)Nc4cscn4)c3)O[C@]3(C(F)(F)F)CC[C@]23C)ccc(F)c1F` (relative stereo) [Example 92, rel-(1R,3R,4S,5R)-4-(3,4-difluoro-2-methoxyphenyl)-N-(4-fluoro-3-(N-(thiazol-4-yl)aminosulfonyl)phenyl)-5-methyl-1-trifluoromethyl-2-oxabicyclo[3.2.0]heptane-3-carboxamide], for which the inhibition at 0.1 µM is ≥ 50%. For `COc1c([C@H]2C(C(=O)Nc3ccnc(S(C)(=N)=O)c3)O[C@]3(C(F)(F)F)CC[C@]23C)ccc(F)c1F` (relative stereo) [Example 93, rel-(1R,3R,4S,5R)-4-(3,4-difluoro-2-methoxyphenyl)-5-methyl-N-(2-(S-methylsulfoximine)pyridin-4-yl)-1-(trifluoromethyl)-2-oxabicyclo[3.2.0]heptane-3-carboxamide] the value was ≥ 50%; for `CN=S(C)(=O)c1cc(NC(=O)C2O[C@]3(C(F)(F)F)CC[C@]3(C)[C@H]2c2ccc(F)c(F)c2OC)ccn1` (relative stereo) [Example 94, rel-(1R,3R,4S,5R)-4-(3,4-difluoro-2-methoxyphenyl)-N-(2-(N,S-dimethylsulfonyl)pyridin-4-yl)-5-methyl-1-(trifluoromethyl)-2-oxabicyclo[3.2.0]heptane-3-carboxamide], ≥ 50%.

Regarding `COc1c([C@H]2C(C(=O)Nc3ccnc(OC[C@H](O)CO)c3)O[C@]3(C(F)(F)F)CC[C@]23C)ccc(F)c1F` (relative stereo) [Example 96, rel-(1R,3R,4S,5R)-4-(3,4-difluoro-2-methoxyphenyl)-N-(2-(R)-2,3-dihydroxypropoxypyridin-4-yl)-5-methyl-1-trifluoromethyl-2-oxabicyclo[3.2.0]heptane-3-carboxamide], the inhibition at 0.1 µM is ≥ 50%. As to `COc1c([C@H]2[C@H](C(=O)Nc3ccc(C(O)CO)nc3)O[C@]3(C(F)(F)F)CC[C@]23C)ccc(F)c1F` (relative stereo) [Example 98, rel-(1R,3R,4S,5R)-4-(3,4-difluoro-2-methoxyphenyl)-N-(6-(1,2-dihydroxyethyl)pyridin-3-yl)-5-methyl-1-trifluoromethyl-2-oxabicyclo[3.2.0]heptane-3-carboxamide], the inhibition at 0.1 µM was ≥ 50%. For the compound `COc1c([C@H]2[C@H](C(=O)Nc3ccnc(N4CCN(C)CC4=O)c3)O[C@]3(C(F)(F)F)CC[C@]23C)ccc(F)c1F` (relative stereo) [Example 100, rel-(1R,3R,4S,5R)-4-(3,4-difluoro-2-methoxyphenyl)-5-methyl-N-(2-(4-methyl-2-oxopiperazin-1-yl)pyridin-4-yl)-1-(trifluoromethyl)-2-oxabicyclo[3.2.0]heptane-3-carboxamide], the inhibition at 0.1 µM was ≥ 50%. As to `COc1c([C@H]2[C@H](C(=O)Nc3ccnc(S(C)(=O)=O)c3)O[C@]3(C(F)(F)F)CC[C@]23C)ccc(F)c1F` (relative stereo) [Example 101, rel-(1R,3R,4S,5R)-4-(3,4-difluoro-2-methoxyphenyl)-5-methyl-N-(2-methylsulfonyl)pyridin-4-yl)-1-trifluoromethyl-2-oxabicyclo[3.2.0]heptane-3-carboxamide], the inhibition at 0.1 µM was ≥ 50%. For `COc1c(C2C(C(=O)Nc3ccc(C(N)=O)c(C(N)=O)c3)OC(C)(C(F)(F)F)C2C)ccc(F)c1F` (single isomer, unassigned) [Example 30-1] the value was < 50%; for `COc1c([C@H]2[C@H](C(=O)Nc3ccnc4c(N)nccc34)O[C@@](C)(C(F)(F)F)[C@H]2C)ccc(F)c1F` [Example 7], ≥ 50%; for `COc1c(C2C(C(=O)Nc3cc(F)c(C(N)=O)c(C(N)=O)c3)OC(C)(C(F)(F)F)C2C)ccc(F)c1F` [Example 80, rel-5-((2R,3S,4S,5R)-3-(3,4-difluoro-2-methoxyphenyl)-4,5-dimethyl-5-(trifluoromethyl)tetrahydrofuran-2-carboxamide)-3-fluorophthalic amine], ≥ 50%. For `COc1c(C2C(C(=O)Nc3ccc(C(N)=O)c(C(N)=O)c3)OC3(C(F)(F)F)CCC23C)ccc(F)c1F` [Example 86, rel-4-((1R,3R,4S,5R)-4-(3,4-difluoro-2-methoxyphenyl)-5-methyl-1-(trifluoromethyl)-2-oxabicyclo[3.2.0]heptane-3-formylamino)phthalamide] the value was ≥ 50%; for `COc1c(C2C(C(=O)Nc3ccnc(OCC(O)CO)c3)OC3(C(F)(F)F)CCC23C)ccc(F)c1F` [Example 95, rel-(1R,3R,4S,5R)-4-(3,4-difluoro-2-methoxyphenyl)-N-(2-(S)-2,3-dihydroxypropoxypyridin-4-yl)-5-methyl-1-trifluoromethyl-2-oxabicyclo[3.2.0]heptane-3-carboxamide], ≥ 50%.
